Consider one cell line from the supplement of paper PMC10307832.

Common to all, as to assay: relative viability (nuclei count vs DMSO), 5 days (fraction); higher = more cells survive
Compound in assay [1]: COc1cc(-c2nn([C@H]3CC[C@H](N4CCN(C(C)=O)CC4)CC3)c3ncnc(N)c23)ccc1NC(=O)c1cc2ccccc2n1C + CC(=O)c1c(C)c2cnc(Nc3ccc(N4CCNCC4)cn3)nc2n(C2CCCC2)c1=O [Palbociclib] (partner 0.5 µM)
The procedure, abridged: (§1)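 A single step with final 0.05% Triton X-100, 1% formaldehyde and 1 ug/ml Hoechst fixed the cells and stained nuclei 5 days after treatment. Lung cancer cell lines in 1536-well plates had been treated by pin tool the day after seeding with one drug alone or a fixed anchor-drug dose plus five library-drug doses (not always all listed) in √10 steps, and nuclei were counted on 4× images. Relative viability is the ratio of nuclei in treated wells to nuclei in vehicle wells, taken as the median of duplicate plates.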

Compound in assay [2]: CO[C@@H]1[C@H](N(C)C(=O)c2ccccc2)C[C@H]2O[C@]1(C)n1c3ccccc3c3c4c(c5c6ccccc6n2c5c31)C(=O)NC4 [Midostaurin] + Cc1cc(Nc2cc(N3CCN(C)CC3)nc(Sc3ccc(NC(=O)C4CC4)cc3)n2)n[nH]1 [Tozasertib] (partner 0.1 µM)
In short, it runs like this:
as §1

Compound in assay [3]: CO[C@@H]1[C@H](N(C)C(=O)c2ccccc2)C[C@H]2O[C@]1(C)n1c3ccccc3c3c4c(c5c6ccccc6n2c5c31)C(=O)NC4 [Midostaurin] + COc1cc2c(Oc3ccc(NC(=O)C4(C(=O)Nc5ccc(F)cc5)CC4)cc3F)ccnc2cc1OCCCN1CCOCC1 [Foretinib] (partner 0.25 µM)
In short, it runs like this:
as §1

Compound in assay [4]: COc1cc(-c2nn([C@H]3CC[C@H](N4CCN(C(C)=O)CC4)CC3)c3ncnc(N)c23)ccc1NC(=O)c1cc2ccccc2n1C
The procedure, abridged: (§2)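 A plate was accepted only when its control CV was below 25% and the cells had doubled at least once. Viability is defined from nuclear counts as treated wells divided by vehicle wells, with the median taken across plates. That median covers lung cancer cell lines grown in 1536-well plates, dosed by pinning at five √10-spaced library-drug concentrations, and counted in MetaXpress from 4× Hoechst images after 5 days.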

Compound in assay [5]: CO[C@@H]1[C@H](N(C)C(=O)c2ccccc2)C[C@H]2O[C@]1(C)n1c3ccccc3c3c4c(c5c6ccccc6n2c5c31)C(=O)NC4 [Midostaurin]
The procedure, abridged:
as §2

Turning to UMC-11, the relative viability came out at 0.349 in assay [1] (first compound 0.0128 µM); 0.341 in assay [1] (first compound 0.04048 µM); 0.335 in assay [1] (first compound 0.128 µM); 0.341 in assay [1] (first compound 1.28 µM); 0.208 in assay [2] (first compound 0.01 µM); 0.18 in assay [2] (first compound 0.03162 µM). The relative viability in assay [2] (first compound 0.1 µM) stood at 0.196; in assay [2] (first compound 0.3162 µM), 0.174; in assay [3] (first compound 0.01 µM) it was 1.08; in assay [3] (first compound 0.03162 µM), 0.946; in assay [3] (first compound 0.1 µM), 0.868; in assay [3] (first compound 0.3162 µM), 0.234. The relative viability in assay [4] (0.0128 µM) was 1.04; in assay [4] (0.04048 µM), 0.955; in assay [4] (0.128 µM), 0.927; in assay [4] (1.28 µM) it was 0.84; in assay [5] (0.01 µM) it was 0.984; in assay [5] (0.03162 µM), 0.901. In addition, the relative viability in assay [5] (0.1 µM) is 1; in assay [5] (0.3162 µM), 0.617.
